Assay results reported in publication PMC7397040, “New Copper(I) Complex with a Coumarin as Ligand with Antibacterial Activity against Flavobacterium psychrophilum” (Molecules, 2020).
Values after ≈ are worked out from the molar mass of the structure shown. Like-named read-outs stand apart in the source and are kept apart here. Marks after values point to notes of the source that are not given here.

Tests used:
[1] = tested on: Flavobacterium psychrophilum 10094; test: Antibacterial test (microdilution: MIC, MBC, IC50); format: cell-based; settings: for MBC / MIC: n = 3; for MIC: F. psychrophilum 10094, 72 h post-incubation, visual; for Amount Cu in MBC / Amount Cu in MIC / Amount Total in IC50 / Amount Total in MBC / Amount Total in MIC: F. psychrophilum; for Amount Cu in MBC / Amount Cu in MIC: amount of copper contained; for Amount Total in IC50 / Amount Total in MBC / Amount Total in MIC: total compound
Protocol: A bacterial strain of Flavobacterium psychrophilum (ETECMA) originally isolated from Salmon Coho (Oncorhynchus kisutch) in 2008 in Chiloe, Chile, was used for antibacterial test. […] The strain was cultivated in TYES broth (pH = 7.2) at 15 °C for 48 h with stirring at 180 rpm.
To determine MIC, MBC and IC50 of complex and its precursors, microdilution method was performed with some modifications. F. psychrophilum 10094 (0.4 OD600 nm = 1 × 10^8 CFU/mL, approximately) was inoculated in TYES broth pH 7.2 to 1% cell suspension in 96-well plates (Falcon) and treated with complex and its precursors in serial concentrations between 512 μg/mL to 2 μg/mL and incubated for 72 h at 15 °C with agitation at 180 rpm. The MIC was determined as the lowest compounds concentrations which inhibited bacterial grow by visual comparison with the negative control (TYES broth). […] The MBC was determined as the minimum concentration of the compounds at which the bacterial colony count was diminish to 99.9%. For determination of the half-maximal inhibitory concentration (IC50) of compounds on F. psychrophilum, the OD600 nm of each wells was measured using Nanoquant Infinite M200 Pro (TECAN, Grödig, Austria). For the correct calculation of the OD of each concentration of each compound, wells with TYES medium were used with each concentration without inoculating with F. psychrophilum, this control OD was subtracted obtaining the final OD. Data were analyzed using the GraphPad Prism program 5.0.

[2] = tested on: Chinook salmon embryo (CHSE-214) cells; test: cells; settings: for toxicity (in words): CHSE-214, 512 to 2 μg/mL, 24 h; for IC50 (cellular): CHSE-214, 24 h at 16 °C, n = 6
Protocol: (§1) Since F. psychrophilum is a bacterial pathogen that affects a wide variety of salmonids, we evaluated the toxicity of the [Cu(NN1)2]ClO4 complex in three different cell lines, Chinook salmon embryo (CHSE-214), Salmon Head Kidney-1 (SHK-1) and intestinal epithelial cell line (RT-GUT). For this experiment 1 × 10^5 cells were treated with the different compounds (coumarin, Cu(I) salt and copper (I) complex) in a range of concentrations between 512 μg/mL and 2 μg/mL, incubated at 16 °C for 24 h.
(§2) 1 × 10^5 Cells were seeded and incubated at 16 °C for 24 h. Later, the cells were treated with compounds in concentrations from 512 μg/mL to 2 μg/mL solubilized in dimethyl sulfoxide (DMSO, Merck, Darmstadt, Germany) and incubated at 16 °C for 24 h. Subsequently, the cells were collected, pelleted and resuspended in IF buffer (1X buffer and 2% fetal bovine serum) and 1 µL propidium iodide (PI, 1 mg/mL) was added. The cellular viability (negative to PI) was analyzed by flow cytometer using FACSCanto II Cytometer (BD biosciences, University of Santiago of Chile, Santiago, RM, Chile). For positive control, cells were incubated without compounds; for death control, cells were incubated with 50% ethanol; medium control cells were treated with medium containing 1% of DMSO. To calculate the IC50 of compounds in the cell lines, they were analyzed using GraphPad Prism program 5.0 (GraphPad Software, San Diego, CA, USA), the concentrations were transformed into log (10) and the number of events normalized in percentage, for the calculation of IC50 a nonlinear regression was performed.

[3] = tested on: Salmon Head Kidney-1 (SHK-1) cells; test: cells; settings: for toxicity (in words): SHK-1, 512 to 2 μg/mL; for IC50 (cellular): SHK-1, 24 h at 16 °C, n = 6
Protocol: as §1, §2

[4] = tested on: intestinal epithelial cell line (RT-GUT); test: cells; settings: for toxicity (in words) / IC50 (cellular): RT-GUT; for toxicity (in words): 512 to 2 μg/mL; for IC50 (cellular): 24 h at 16 °C, n = 6
Protocol: as §1, §2

[5] = Stability in solution by UV-Vis spectra; format: physicochemical; settings: 72 h after the solution was prepared, CHCl3, air-exposed, room temperature
Protocol: The spectral region below 400 nm in complex correspond at π to π* intraligand transition bands, which are similar profile of free ligand, but undergo a red-shift upon complexation to copper(I) in around 20 nm.
All the chemicals were purchased commercially and used without further purification. ^1H, ^13C NMR and 2D spectra were recorded on a Bruker Avance Neo 400 MHz spectrometer (400.133 MHz for ^1H, 40.559 MHz for ^15N and 100.613 MHz for ^13C, (University of Santiago of Chile, Santiago, RM, Chile) equipped with a 5 mm multinuclear broad-band dual probehead, incorporating a z-gradient coil. All the measurement was done in CDCl3 at 300 K. Chemical shifts (in ppm) for ^1H and ^13C were calibrated respect to the residual protonated signal of the solvent (7.26 and 77 ppm respectively) and reported relative to Me4Si. The ^15N signal in ^1H ^15N HMBC were calibrated relative to CH3NO2 (90%) in CDCl3). The following abbreviations were used to explain the multiplicities: s = singlet, d = doublet, m = multiplet. […] Electrochemical behavior was studied by cyclic voltammetry using a potentiostat CHI 620E by CH instrument equipment supplied with the electrochemical analyzer CHI software (University of Santiago of Chile, Santiago, RM, Chile). […]

[6] = Cyclic voltammetry, Cu(II)/Cu(I) oxidation potential; format: physicochemical; settings: vs Ag/AgCl, CH2Cl2, 0.1 M TBAP, quasireversible, ΔE = 114 mV
Protocol: Voltammetry studies were also performed in order to determine the effect of new NN1 ligand on the Cu(II)/Cu(I) oxidation potential considering the well-known fact of high influence of ligands on the metal-centered HOMO energy. Consequently, measurements were registered at room temperature in −1.10 to +1.30 V vs Ag/AgCl potential range.
All the chemicals were purchased commercially and used without further purification. ^1H, ^13C NMR and 2D spectra were recorded on a Bruker Avance Neo 400 MHz spectrometer (400.133 MHz for ^1H, 40.559 MHz for ^15N and 100.613 MHz for ^13C, (University of Santiago of Chile, Santiago, RM, Chile) equipped with a 5 mm multinuclear broad-band dual probehead, incorporating a z-gradient coil. All the measurement was done in CDCl3 at 300 K. Chemical shifts (in ppm) for ^1H and ^13C were calibrated respect to the residual protonated signal of the solvent (7.26 and 77 ppm respectively) and reported relative to Me4Si. The ^15N signal in ^1H ^15N HMBC were calibrated relative to CH3NO2 (90%) in CDCl3). […] Electronic spectra were recorded on a PerkinElmer UV-VIS Lambda 25 spectrophotometer (University of Santiago of Chile, Santiago, RM, Chile) at room temperature, wavelength range between 200 and 1100 nm from 1.5 × 10^−5 mol/L solutions in dichloromethane to NN1 and [Cu(NN1)2]ClO4. […]

[7] = parameters: method as in PMID 30177987; settings: versus Ag/AgCl in CH2Cl2 ref 18; cited from earlier work
[8] = F. psychrophilum 10094, colony count diminished to 99.9%
[9] = F. psychrophilum 10094, 72 h post-incubation at 15 °C, OD600, n = 3

| SMILES | MBC [1, 8] | toxicity (in words) [2] | toxicity (in words) ([3]; 24 h) | toxicity (in words) ([4]; 24 h) | IC50 (bacterial) [1, 9] | MIC [1] | Amount Cu in MBC [1] | Amount Cu in MIC [1] | Amount Total in IC50 [1] | Amount Total in MBC [1] | Amount Total in MIC [1] | IC50 (cellular) [2] | IC50 (cellular) [3] | IC50 (cellular) [4] | further results |
| --- | --- | --- | --- | --- | --- | --- | --- | --- | --- | --- | --- | --- | --- | --- | --- |
| O=c1ccc2ccccc2o1 [Coumarin, 1-benzopyran-2-one] | >512 µg/mL | toxicity was not observed | toxicity was not observed | toxicity was not observed |  |  |  |  |  |  |  |  |  |  | MBC ([1]; Flavobacterium psychrophilum, 10094, F. psychrophilum 10094, colony count diminished to 99.9%, read-out: MBC): < 512 µg/mL; IC50 ([1]; Flavobacterium psychrophilum, F. psychrophilum 10094, 72 h post-incubation at 15 °C, OD600, n = 3, read-out: IC50 (bacterial)): 160 ± 25.5 µg/mL (≈ 1.09 mM); MIC ([1]; Flavobacterium psychrophilum, read-out: MIC): 512 µg/mL (≈ 3.5 mM); IC50 ([2]; CHSE-214, 24 h, read-out: IC50 (cellular)): > 512 µg/mL; IC50 ([3]; 24 h, read-out: IC50 (cellular)): > 512 µg/mL; IC50 ([4]; Oncorhynchus mykiss, Epithelial cell, 24 h, read-out: IC50 (cellular)): > 512 µg/mL |
| CC#N.CC#N.CC#N.CC#N.[Cu+].[O-][Cl+3]([O-])([O-])[O-] [[Cu(CH3CN)4]ClO4] | 64 µg/mL | concentration-dependent toxicity was observed | concentration-dependent toxicity was observed | concentration-dependent toxicity was observed | 10.4 ± 0.7 ^b µg/mL | 64 µg/mL | 12.5 µg/mL | 12.5 µg/mL | 10.4 µg/mL | 64 µg/mL | 64 µg/mL | 59.4 ± 4.1 ^a µg/mL | 159 ± 44.6 ^a µg/mL | 233.9 ± 19.5 ^a µg/mL |  |
| O=c1ccc2cc(N=Cc3ccc4ccccc4n3)ccc2o1.O=c1ccc2cc(N=Cc3ccc4ccccc4n3)ccc2o1.[Cu+].[O-][Cl+3]([O-])([O-])[O-] [[Cu(NN1)2]ClO4] | 32 µg/mL | concentration-dependent toxicity was observed | concentration-dependent toxicity was observed | concentration-dependent toxicity was observed | 16.1 ± 0.9 ^c µg/mL | 32 µg/mL | 2.7 µg/mL | 2.7 µg/mL | 16.1 µg/mL | 32 µg/mL | 32 µg/mL | 29.1 ± 1.4 ^b µg/mL | 30.8 ± 1.3 ^b µg/mL | 53.0 ± 3.1 ^b µg/mL | stability in solution (changes in UV-Vis spectral bands) [5]: No significant changes in the spectral bands; E1/2 Cu(II)/Cu(I) couple [6]: 0.426 V |
| [Cu+].[O-][Cl+3]([O-])([O-])[O-].c1ccc2nc(-c3ccc4ccccc4n3)ccc2c1.c1ccc2nc(-c3ccc4ccccc4n3)ccc2c1 [[Cu(biq)2]ClO4] |  |  |  |  |  |  |  |  |  |  |  |  |  |  | E1/2 [7]: 0.96 V |
